Read-outs that look alike come from different tables or passages of the source.
Test: 7-day mouse toxicology study: toxicokinetics (plasma, brain, CSF), 30 mg/kg/day PO
Type: in vivo, male C57BL/6 mice
Details: for Cmax / Tmax / AUC(0-t) / AUC(0-inf) / half-life: male, C57BL/6, mouse, po
Experimental: The PO dosing solutions were prepared in 50 mM citrate buffer (pH 4.0) at 3 mg/mL. The blood collection was performed as follows: the animal was anesthetized under isoflurane. Approximately 500 μL blood/time point was collected into K2EDTA tube via cardiac puncture for terminal bleeding. ˜200 μL blood samples were put on ice and centrifuged to obtain plasma sample (2000 g, 5 min under 4° C.) within 15 minutes of collection. ˜300 blood samples were used for hematology assay. The brain collection was performed as follow: a mid-line incision was made in the animal's scalp and skin retracted. The skull overlying the brain was removed. The whole brain was collected, rinsed with cold saline, dried on filtrate paper, weighted, and snap frozen by placing into dry ice. The brain sample was homogenized for 2 min with 3 volumes of PBS (pH 7.4) by Mini-bead-beater before sample extraction.
An aliquot of 10 μL sample was added to 200 μL MeCN containing 10 ng/mL IS (Glipizide). The mixture was vortexed for 10 min and centrifuged at 6,000 rpm for 10 min. An aliquot of 1 μL constitution was injected for LC-MS/MS analysis.
An aliquot of 3 μL sample was added to 70 μL MeCN containing 10 ng/mL IS (Glipizide). The mixture was vortexed for 2 min and centrifuged at 14,000 rpm for 5 min. An aliquot of 1 μL constitution was injected for LC-MS/MS analysis.
The sample was homogenized with 3 volumes (v/w) of PBS. An aliquot of 10 μL sample was added to 200 μL MeCN containing 10 ng/mL IS (Glipizide). The mixture was vortexed for 10 min and centrifuged at 6,000 rpm for 10 min. An aliquot of 1 μL constitution was injected for LC-MS/MS analysis.
The sample analysis was performed on LCMSMS-28 (Triple Quad 6500+) under the following conditions: positive ion, ESI, MRM detection using glipizide as internal standard. HPLC conditions: mobile phase A: H2O/0.025% FA with 1 mM NH4OAc, mobile phase B: MeOH/0.025% FA with 1 mM NH4OAc on Waters X-Bridge BEH C18 (2.1×50 mm, 2.5 μm) column at 60° C.

[1] = CSF, 30 mg/kg, Day 1, CSF, 30 mg/kg PO
[2] = CSF, 30 mg/kg, Day 7, CSF, 30 mg/kg PO
[3] = brain, 30 mg/kg, Day 1, Brain, 30 mg/kg PO
[4] = brain, 30 mg/kg, Day 7, Brain, 30 mg/kg PO
[5] = plasma, 30 mg/kg, Day 1, Plasma, 30 mg/kg PO
[6] = plasma, 30 mg/kg, Day 7, Plasma, 30 mg/kg PO

Compound: Cc1cccnc1[C@@H]1CCC[C@H](c2nc3cccc(N4CCN(C)CC4)c3[nH]2)N1C (racemic) [I-3, 2-((2R,6S)-1-methyl-6-(3-methylpyridin-2-yl)piperidin-2-yl)-7-(4-methylpiperazin-1-yl)-1H-benzo[d]imidazole]
- AUCCSF/AUCbrain (Day 1, 30 mg/kg PO): 3.55%
- AUCCSF/AUCbrain (Day 7, 30 mg/kg PO): 0.325%
- Cmax [1]: 11.3 ng/mL
- Tmax [1]: 8 h
- AUC(0-t) (CSF, 30 mg/kg, Day 1, CSF, 30 mg/kg PO, read-out: AUClast): 151 ng·h/mL
- Cmax [2]: 6.42 ng/mL
- Tmax [2]: 4 h
- AUC(0-t) (CSF, 30 mg/kg, Day 7, CSF, 30 mg/kg PO, read-out: AUClast): 35.5 ng·h/mL
- AUC(0-inf) [3]: 8880 ng·h/mL
- Cmax [3]: 219 ng/mL
- Tmax [3]: 4 h
- AUC(0-t) (brain, 30 mg/kg, Day 1, Brain, 30 mg/kg PO, read-out: AUClast): 4260 ng·h/mL
- half-life (brain, 30 mg/kg, Day 1, Brain, 30 mg/kg PO, read-out: Terminal t1/2 (converted)): 1500 min
- AUC(0-inf) [4]: 29500 ng·h/mL
- Cmax [4]: 615 ng/mL
- Tmax [4]: 1 h
- AUC(0-t) (brain, 30 mg/kg, Day 7, Brain, 30 mg/kg PO, read-out: AUClast): 10900 ng·h/mL
- half-life (brain, 30 mg/kg, Day 7, Brain, 30 mg/kg PO, read-out: Terminal t1/2 (converted)): 2060 min
- AUC(0-t) (brain, 30 mg/kg, brain, D 1-30 mg/kg, PO, read-out: AUClast (b)): 4260 ng·h/mL
- AUC(0-t) (brain, 30 mg/kg/day, brain, D 7-30 mg/kg, PO, read-out: AUClast (b)): 10900 ng·h/mL
- half-life (plasma, 30 mg/kg, 7 days Mouse TOX, D 1-30 mg/kg, PO, read-out: t½ (converted)): 157 min
- AUC(0-inf) [5]: 2370 ng·h/mL
- Cmax [5]: 968 ng/mL
- Tmax [5]: 0.5 h
- AUC(0-t) (plasma, 30 mg/kg, Day 1, Plasma, 30 mg/kg PO, read-out: AUClast): 2370 ng·h/mL
- half-life (plasma, 30 mg/kg, Day 1, Plasma, 30 mg/kg PO, read-out: Terminal t1/2 (converted)): 157 min
- AUC(0-inf) [6]: 3570 ng·h/mL
- Cmax [6]: 1210 ng/mL
- Tmax [6]: 0.5 h
- AUC(0-t) (plasma, 30 mg/kg, Day 7, Plasma, 30 mg/kg PO, read-out: AUClast): 3560 ng·h/mL
- half-life (plasma, 30 mg/kg, Day 7, Plasma, 30 mg/kg PO, read-out: Terminal t1/2 (converted)): 188 min
- AUC(0-t) (plasma, 30 mg/kg, plasma, D 1-30 mg/kg, PO, read-out: AUClast (p)): 2370 ng·h/mL
- half-life (plasma, 30 mg/kg/day, 7 days Mouse TOX, D 7-30 mg/kg, PO, read-out: t½ (converted)): 188 min
- AUC(0-t) (plasma, 30 mg/kg/day, plasma, D 7-30 mg/kg, PO, read-out: AUClast (p)): 3560 ng·h/mL

Reference: patent US10988465B2, “CXCR4 inhibitors and uses thereof” (X4 Pharmaceuticals, Inc., priority 2016, dated 2021)
